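Interpolation was linear, between the two tested concentrations surrounding the appropriate level; five concentrations were tested over 48 hours in 96-well plates. Abbreviation: GI50, concentration required for 50% inhibition of growth. Definition used: TGI = concentration required for complete inhibition of growth.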
Assays:
Assay in all cases: growth of human tumour cells (NCI), 48 h
LOX IMVI melanoma = tested on: LOX IMVI melanoma
M14 melanoma = tested on: M14 melanoma
CAKI-1 renal = tested on: CAKI-1 renal
HCC-2998 colon = tested on: HCC-2998 colon
IGROV1 ovarian = tested on: IGROV1 ovarian
OVCAR-5 ovarian = tested on: OVCAR-5 ovarian
HOP-62 NSCLC = tested on: HOP-62 NSCLC
OVCAR-4 ovarian = tested on: OVCAR-4 ovarian
K-562 leukemia = tested on: K-562 leukemia
HCT-116 colon = tested on: HCT-116 colon
SF-295 CNS = tested on: SF-295 CNS
SK-OV-3 ovarian = tested on: SK-OV-3 ovarian
MALME-3M melanoma = tested on: MALME-3M melanoma
HL-60(TB) leukemia = tested on: HL-60(TB) leukemia
HS 578T breast = tested on: HS 578T breast
OVCAR-8 ovarian = tested on: OVCAR-8 ovarian
HCT-15 colon = tested on: HCT-15 colon
BT-549 breast = tested on: BT-549 breast
SN12C renal = tested on: SN12C renal
A549 NSCLC = tested on: A549 NSCLC
SF-268 CNS = tested on: SF-268 CNS
DU-145 prostate = tested on: DU-145 prostate
PC-3 prostate = tested on: PC-3 prostate
SK-MEL-2 melanoma = tested on: SK-MEL-2 melanoma
NCI-H522 lung = tested on: NCI-H522 lung
TK-10 renal = tested on: TK-10 renal
NCI/ADR-RES ovarian = tested on: NCI/ADR-RES ovarian
UACC-62 melanoma = tested on: UACC-62 melanoma
EKVX NSCLC = tested on: EKVX NSCLC
RPMI-8226 leukemia = tested on: RPMI-8226 leukemia
SK-MEL-28 melanoma = tested on: SK-MEL-28 melanoma
KM12 colon = tested on: KM12 colon
U251 CNS = tested on: U251 CNS
MDA-MB-435 = tested on: MDA-MB-435
786-0 renal = tested on: 786-0 renal
SW-620 colon = tested on: SW-620 colon
A498 renal = tested on: A498 renal
HT29 colon = tested on: HT29 colon
SNB-75 CNS = tested on: SNB-75 CNS
ACHN renal = tested on: ACHN renal
NCI-H226 lung = tested on: NCI-H226 lung
NCI-H460 lung = tested on: NCI-H460 lung
RXF 393 renal = tested on: RXF 393 renal
SNB-19 CNS = tested on: SNB-19 CNS
UO-31 renal = tested on: UO-31 renal
SF-539 CNS = tested on: SF-539 CNS
HOP-92 NSCLC = tested on: HOP-92 NSCLC
NCI-H23 lung = tested on: NCI-H23 lung
MDA-MB-231 breast = tested on: MDA-MB-231 breast

SMILES: Fc1cccc(Cl)c1/C=N/Nc1nc(N/N=C/c2c(F)cccc2Cl)nc(N2CCCCC2)n1
- GI50 (LOX IMVI melanoma): 3.77 µM
- TGI (LOX IMVI melanoma): > 100 µM
- GI50 (M14 melanoma): 2.4 µM
- TGI (M14 melanoma): 9 µM
- GI50 (CAKI-1 renal): 3.01 µM
- TGI (CAKI-1 renal): 15.5 µM
- GI50 (HCC-2998 colon): 3.68 µM
- TGI (HCC-2998 colon): > 100 µM
- GI50 (IGROV1 ovarian): 3.16 µM
- TGI (IGROV1 ovarian): > 100 µM
- GI50 (OVCAR-5 ovarian): 3.8 µM
- TGI (OVCAR-5 ovarian): > 100 µM
- GI50 (HOP-62 NSCLC): 2.85 µM
- TGI (HOP-62 NSCLC): 12 µM
- GI50 (OVCAR-4 ovarian): 2.58 µM
- TGI (OVCAR-4 ovarian): > 100 µM
- GI50 (K-562 leukemia): 3.08 µM
- TGI (K-562 leukemia): > 100 µM
- GI50 (HCT-116 colon): 2.83 µM
- TGI (HCT-116 colon): 11.9 µM
- GI50 (SF-295 CNS): 1.01 µM
- TGI (SF-295 CNS): 10.7 µM
- GI50 (SK-OV-3 ovarian): 3.65 µM
- TGI (SK-OV-3 ovarian): 15.4 µM
- GI50 (MALME-3M melanoma): 2.21 µM
- TGI (MALME-3M melanoma): 6.26 µM
- GI50 (HL-60(TB) leukemia): 2 µM
- TGI (HL-60(TB) leukemia): > 100 µM
- GI50 (HS 578T breast): 2.44 µM
- TGI (HS 578T breast): 15.4 µM
- GI50 (OVCAR-8 ovarian): 3.89 µM
- TGI (OVCAR-8 ovarian): > 100 µM
- GI50 (HCT-15 colon): 2.82 µM
- TGI (HCT-15 colon): > 100 µM
- GI50 (BT-549 breast): 4.45 µM
- TGI (BT-549 breast): 20.9 µM
- GI50 (SN12C renal): 2.85 µM
- TGI (SN12C renal): > 100 µM
- GI50 (A549 NSCLC): 3.04 µM
- TGI (A549 NSCLC): > 100 µM
- GI50 (SF-268 CNS): 4.22 µM
- TGI (SF-268 CNS): 52.9 µM
- GI50 (DU-145 prostate): 11.7 µM
- TGI (DU-145 prostate): > 100 µM
- GI50 (PC-3 prostate): 2.06 µM
- TGI (PC-3 prostate): > 100 µM
- GI50 (SK-MEL-2 melanoma): 1.69 µM
- TGI (SK-MEL-2 melanoma): 3.91 µM
- GI50 (NCI-H522 lung): 2.57 µM
- TGI (NCI-H522 lung): 9.68 µM
- GI50 (TK-10 renal): 3.73 µM
- TGI (TK-10 renal): 9.11 µM
- GI50 (NCI/ADR-RES ovarian): 2.76 µM
- TGI (NCI/ADR-RES ovarian): > 100 µM
- GI50 (UACC-62 melanoma): 2.35 µM
- TGI (UACC-62 melanoma): 9.5 µM
- GI50 (EKVX NSCLC): 1.54 µM
- TGI (EKVX NSCLC): > 100 µM
- GI50 (RPMI-8226 leukemia): 2.26 µM
- TGI (RPMI-8226 leukemia): > 100 µM
- GI50 (SK-MEL-28 melanoma): 3.41 µM
- TGI (SK-MEL-28 melanoma): > 100 µM
- GI50 (KM12 colon): 2.93 µM
- TGI (KM12 colon): > 100 µM
- GI50 (U251 CNS): 3.56 µM
- TGI (U251 CNS): 22.5 µM
- GI50 (MDA-MB-435): 2.86 µM
- TGI (MDA-MB-435): > 100 µM
- GI50 (786-0 renal): 3.44 µM
- TGI (786-0 renal): 14.7 µM
- GI50 (SW-620 colon): 3.51 µM
- TGI (SW-620 colon): > 100 µM
- GI50 (A498 renal): 2.4 µM
- TGI (A498 renal): 13.2 µM
- GI50 (HT29 colon): 2.9 µM
- TGI (HT29 colon): > 100 µM
- GI50 (SNB-75 CNS): 2.36 µM
- TGI (SNB-75 CNS): 10.5 µM
- GI50 (ACHN renal): 3.04 µM
- TGI (ACHN renal): 12.8 µM
- GI50 (NCI-H226 lung): 6.48 µM
- TGI (NCI-H226 lung): > 100 µM
- GI50 (NCI-H460 lung): 3.14 µM
- TGI (NCI-H460 lung): > 100 µM
- GI50 (RXF 393 renal): 2.65 µM
- TGI (RXF 393 renal): 11.5 µM
- GI50 (SNB-19 CNS): 3.25 µM
- TGI (SNB-19 CNS): 18 µM
- GI50 (UO-31 renal): 2.01 µM
- TGI (UO-31 renal): > 100 µM
- GI50 (SF-539 CNS): 7.65 µM
- TGI (SF-539 CNS): 24.3 µM
- GI50 (HOP-92 NSCLC): 1.47 µM
- TGI (HOP-92 NSCLC): 5.36 µM
- GI50 (NCI-H23 lung): 3.42 µM
- TGI (NCI-H23 lung): 16.8 µM
- GI50 (MDA-MB-231 breast): 7.65 µM
- TGI (MDA-MB-231 breast): 24.4 µM

From PubChem BioAssay (NCI)
